Results published in ChEMBL document CHEMBL1909046, “DrugMatrix in vitro pharmacology data”.

Tests used:
[1] = target: T1, Alpha-1A adrenergic receptor (Rattus norvegicus, UniProt P43140); test: DRUGMATRIX: Alpha-1A adrenergic receptor radioligand binding (ligand: prazosin); format: cell membranes, Wistar, Submaxillary gland, Membrane; conditions: Not Active = under 50% inhibition at 10 µM
T1 sequence (P43140 whole entry): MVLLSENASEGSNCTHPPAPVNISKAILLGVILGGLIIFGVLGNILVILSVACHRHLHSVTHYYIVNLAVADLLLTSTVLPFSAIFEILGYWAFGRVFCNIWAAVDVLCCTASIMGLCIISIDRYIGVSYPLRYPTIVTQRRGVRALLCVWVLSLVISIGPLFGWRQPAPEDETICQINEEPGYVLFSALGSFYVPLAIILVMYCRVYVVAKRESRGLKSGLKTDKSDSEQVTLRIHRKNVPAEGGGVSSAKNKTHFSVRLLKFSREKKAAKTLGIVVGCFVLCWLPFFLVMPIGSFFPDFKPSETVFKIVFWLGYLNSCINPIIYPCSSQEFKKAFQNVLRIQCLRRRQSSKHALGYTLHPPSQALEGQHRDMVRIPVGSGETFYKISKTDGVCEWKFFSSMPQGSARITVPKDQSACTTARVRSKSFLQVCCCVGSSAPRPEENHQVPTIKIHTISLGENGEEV

[2] = DRUGMATRIX: beta-Lactamase enzyme inhibition (substrate: Nitrocefin); parameters: species or system Bacillus cereus; conditions: Not Active = under 50% inhibition at 10 µM
[3] = DRUGMATRIX: Glutamate, NMDA, Agonism radioligand binding (ligand: [3H] CGP-39653); format: cell membranes, Rattus norvegicus, Wistar, Cerebral cortex, Membrane; conditions: Not Active = under 50% inhibition at 10 µM
[4] = DRUGMATRIX: Glutamate, NMDA, Phencyclidine radioligand binding (ligand: [3H] TCP); format: cell membranes, Rattus norvegicus, Wistar, Cerebral cortex, Membrane; conditions: Not Active = under 50% inhibition at 10 µM
[5] = DRUGMATRIX: Interleukin IL-1 radioligand binding (ligand: [125I] interleukin 1beta); format: cell membranes, Membrane; conditions: nih3t3; Not Active = under 50% inhibition at 10 µM
[6] = target: T2, Cysteinyl leukotriene receptor 1 (Homo sapiens, UniProt Q9Y271); format: cell membranes, CHO-K1, Membrane; conditions: cho-k1; note: in other assays of this panel Not Active means under 50% inhibition at 10 µM
T2 sequence (Q9Y271 whole entry): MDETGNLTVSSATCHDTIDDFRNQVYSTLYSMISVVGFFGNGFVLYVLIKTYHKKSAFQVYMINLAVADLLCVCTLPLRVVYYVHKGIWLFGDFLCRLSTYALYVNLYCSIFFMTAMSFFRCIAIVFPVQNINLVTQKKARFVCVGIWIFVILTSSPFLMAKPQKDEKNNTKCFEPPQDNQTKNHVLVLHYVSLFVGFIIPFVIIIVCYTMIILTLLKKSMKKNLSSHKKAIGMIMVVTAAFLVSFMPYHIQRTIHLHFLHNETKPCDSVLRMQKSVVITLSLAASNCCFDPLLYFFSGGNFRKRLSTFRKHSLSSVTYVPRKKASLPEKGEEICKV

Mu-type opioid receptor = Mu-type opioid receptor (Homo sapiens, UniProt P35372); test: DRUGMATRIX: Opiate mu (OP3, MOP) radioligand binding (ligand: [3H] Diprenorphine); format: cell membranes, CHO-K1, Membrane; conditions: cho-k1; Not Active = under 50% inhibition at 10 µM
[7] = DRUGMATRIX: Potassium Channel [KATP] radioligand binding (ligand: [3H] Glyburide); format: cell membranes, Membrane; conditions: hit-t15; Not Active = under 50% inhibition at 10 µM
[8] = target: T3, Angiotensin-converting enzyme (Oryctolagus cuniculus, UniProt P12822); test: biochemical; format: tissue-based, Lung;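 note: enzymatic inhibition of angiotensin-converting enzyme measured with FAPGG as the substrate; in other assays of this panel Not Active means under 50% inhibition at 10 µM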
T3 sequence (P12822 whole entry): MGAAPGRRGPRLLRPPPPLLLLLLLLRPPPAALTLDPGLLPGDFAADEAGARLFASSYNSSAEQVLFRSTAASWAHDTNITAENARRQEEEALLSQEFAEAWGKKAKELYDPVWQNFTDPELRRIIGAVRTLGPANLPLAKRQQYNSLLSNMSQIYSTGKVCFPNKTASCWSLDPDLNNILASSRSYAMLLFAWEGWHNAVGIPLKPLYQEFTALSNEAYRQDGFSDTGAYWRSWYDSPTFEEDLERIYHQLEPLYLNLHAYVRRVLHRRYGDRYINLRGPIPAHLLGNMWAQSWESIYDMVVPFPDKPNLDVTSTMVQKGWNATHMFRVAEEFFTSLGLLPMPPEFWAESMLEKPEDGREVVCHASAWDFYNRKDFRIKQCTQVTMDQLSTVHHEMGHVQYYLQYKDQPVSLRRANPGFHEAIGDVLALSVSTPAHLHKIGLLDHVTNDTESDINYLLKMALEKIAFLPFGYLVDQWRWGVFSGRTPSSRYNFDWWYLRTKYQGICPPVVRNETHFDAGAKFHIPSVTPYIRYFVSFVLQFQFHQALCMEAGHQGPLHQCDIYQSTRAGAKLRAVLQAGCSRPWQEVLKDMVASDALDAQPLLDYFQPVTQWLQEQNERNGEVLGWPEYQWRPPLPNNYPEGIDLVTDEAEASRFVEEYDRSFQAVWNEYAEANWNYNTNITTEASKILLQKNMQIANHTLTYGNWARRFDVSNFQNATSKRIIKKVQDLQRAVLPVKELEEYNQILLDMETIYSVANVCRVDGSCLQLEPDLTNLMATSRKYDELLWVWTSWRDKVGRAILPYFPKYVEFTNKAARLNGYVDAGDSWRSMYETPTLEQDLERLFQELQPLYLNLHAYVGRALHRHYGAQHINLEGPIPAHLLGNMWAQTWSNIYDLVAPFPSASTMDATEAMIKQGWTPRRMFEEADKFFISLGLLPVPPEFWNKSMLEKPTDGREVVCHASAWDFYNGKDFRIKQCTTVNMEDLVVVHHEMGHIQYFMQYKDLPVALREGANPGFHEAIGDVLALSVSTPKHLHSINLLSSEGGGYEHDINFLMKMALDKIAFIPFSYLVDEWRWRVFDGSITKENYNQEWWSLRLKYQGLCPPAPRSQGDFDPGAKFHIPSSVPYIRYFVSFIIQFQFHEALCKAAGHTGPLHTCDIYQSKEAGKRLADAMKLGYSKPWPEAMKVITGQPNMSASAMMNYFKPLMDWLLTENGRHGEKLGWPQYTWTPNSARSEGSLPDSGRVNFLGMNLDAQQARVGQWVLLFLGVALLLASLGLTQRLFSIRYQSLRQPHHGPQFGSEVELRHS

[9] = DRUGMATRIX: Purinergic P2X radioligand binding (ligand: [3H] alpha, beta-Methylene-ATP); format: cell membranes, Oryctolagus cuniculus, New Zealand albino, Urinary bladder, Membrane; conditions: Not Active = under 50% inhibition at 10 µM
Cytochrome P450 3A4 = Cytochrome P450 3A4 (Homo sapiens, UniProt P08684); conditions: bti-tn-5b1-4; note: in other assays of this panel Not Active means under 50% inhibition at 10 µM
[10] = target: Sodium-dependent dopamine transporter (Homo sapiens, UniProt Q01959); test: DRUGMATRIX: Dopamine Transporter radioligand binding (ligand: [125I] RTI-55); format: cell membranes, CHO-K1, Membrane; conditions: cho-k1; Not Active = under 50% inhibition at 10 µM
[11] = target: Voltage-gated inwardly rectifying potassium channel KCNH2 (Homo sapiens, UniProt Q12809); conditions: hek293; note: in other assays of this panel Not Active means under 50% inhibition at 10 µM
Voltage-gated inwardly rectifying potassium channel KCNH2, sequence (Q12809 whole entry): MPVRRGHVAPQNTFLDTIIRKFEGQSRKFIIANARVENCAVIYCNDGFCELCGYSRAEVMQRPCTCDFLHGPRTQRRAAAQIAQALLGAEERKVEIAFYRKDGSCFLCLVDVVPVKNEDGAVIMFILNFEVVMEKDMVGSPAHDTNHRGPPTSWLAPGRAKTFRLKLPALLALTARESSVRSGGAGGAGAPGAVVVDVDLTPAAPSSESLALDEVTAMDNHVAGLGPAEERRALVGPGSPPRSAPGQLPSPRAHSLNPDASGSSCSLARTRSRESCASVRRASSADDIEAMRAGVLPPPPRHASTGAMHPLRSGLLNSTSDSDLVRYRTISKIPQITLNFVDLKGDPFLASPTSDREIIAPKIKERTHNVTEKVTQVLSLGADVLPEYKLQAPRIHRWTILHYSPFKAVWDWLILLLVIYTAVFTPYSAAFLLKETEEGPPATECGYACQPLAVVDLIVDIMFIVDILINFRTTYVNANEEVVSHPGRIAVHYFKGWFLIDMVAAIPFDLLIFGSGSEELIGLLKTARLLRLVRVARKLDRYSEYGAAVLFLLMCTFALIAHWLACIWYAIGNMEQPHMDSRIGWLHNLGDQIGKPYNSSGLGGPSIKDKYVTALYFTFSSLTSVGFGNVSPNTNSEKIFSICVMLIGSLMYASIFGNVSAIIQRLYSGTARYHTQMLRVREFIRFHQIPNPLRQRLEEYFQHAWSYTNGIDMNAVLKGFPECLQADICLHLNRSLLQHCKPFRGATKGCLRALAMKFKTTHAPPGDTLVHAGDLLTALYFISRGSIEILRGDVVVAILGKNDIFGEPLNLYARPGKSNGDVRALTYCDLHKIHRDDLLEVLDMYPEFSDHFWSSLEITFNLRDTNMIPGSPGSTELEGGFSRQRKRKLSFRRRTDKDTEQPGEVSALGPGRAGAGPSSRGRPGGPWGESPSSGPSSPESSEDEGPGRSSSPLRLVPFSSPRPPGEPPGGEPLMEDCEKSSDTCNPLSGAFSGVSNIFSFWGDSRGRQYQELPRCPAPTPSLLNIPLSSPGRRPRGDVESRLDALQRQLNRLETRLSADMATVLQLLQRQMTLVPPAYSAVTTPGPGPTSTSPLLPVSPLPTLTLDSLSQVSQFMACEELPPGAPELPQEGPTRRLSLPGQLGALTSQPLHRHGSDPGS

Sodium-dependent dopamine transporter, sequence (Q01959 whole entry): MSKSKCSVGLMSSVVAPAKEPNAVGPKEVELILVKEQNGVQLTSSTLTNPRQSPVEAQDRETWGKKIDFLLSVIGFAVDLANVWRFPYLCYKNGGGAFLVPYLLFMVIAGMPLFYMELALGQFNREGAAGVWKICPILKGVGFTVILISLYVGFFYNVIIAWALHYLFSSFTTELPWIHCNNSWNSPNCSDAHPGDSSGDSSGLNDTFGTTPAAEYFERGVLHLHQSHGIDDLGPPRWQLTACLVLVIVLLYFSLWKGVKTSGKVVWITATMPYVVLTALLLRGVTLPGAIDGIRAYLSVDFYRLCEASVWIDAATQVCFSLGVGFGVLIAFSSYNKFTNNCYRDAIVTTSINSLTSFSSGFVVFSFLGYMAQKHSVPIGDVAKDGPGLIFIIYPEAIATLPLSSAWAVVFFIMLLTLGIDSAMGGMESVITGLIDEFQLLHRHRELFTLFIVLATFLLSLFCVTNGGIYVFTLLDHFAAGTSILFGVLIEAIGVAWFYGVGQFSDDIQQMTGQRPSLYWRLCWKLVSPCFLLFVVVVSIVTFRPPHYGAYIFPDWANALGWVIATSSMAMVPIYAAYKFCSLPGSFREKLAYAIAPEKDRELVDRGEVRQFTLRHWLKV
Cytochrome P450 3A4, sequence (P08684 whole entry): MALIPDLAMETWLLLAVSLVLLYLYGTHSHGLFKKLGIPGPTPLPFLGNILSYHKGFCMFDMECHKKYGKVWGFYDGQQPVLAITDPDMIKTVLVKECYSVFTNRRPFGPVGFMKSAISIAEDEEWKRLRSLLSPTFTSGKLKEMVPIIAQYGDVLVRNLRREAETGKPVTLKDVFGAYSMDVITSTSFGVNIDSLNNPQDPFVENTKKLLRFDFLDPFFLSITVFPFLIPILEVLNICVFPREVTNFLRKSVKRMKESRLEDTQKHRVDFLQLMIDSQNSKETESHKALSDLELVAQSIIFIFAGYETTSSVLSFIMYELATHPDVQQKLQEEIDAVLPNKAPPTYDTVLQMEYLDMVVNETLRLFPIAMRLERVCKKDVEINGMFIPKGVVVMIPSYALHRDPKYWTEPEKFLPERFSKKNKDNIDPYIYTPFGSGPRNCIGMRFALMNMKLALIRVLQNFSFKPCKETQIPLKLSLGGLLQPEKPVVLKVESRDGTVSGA
Mu-type opioid receptor, sequence (P35372 whole entry): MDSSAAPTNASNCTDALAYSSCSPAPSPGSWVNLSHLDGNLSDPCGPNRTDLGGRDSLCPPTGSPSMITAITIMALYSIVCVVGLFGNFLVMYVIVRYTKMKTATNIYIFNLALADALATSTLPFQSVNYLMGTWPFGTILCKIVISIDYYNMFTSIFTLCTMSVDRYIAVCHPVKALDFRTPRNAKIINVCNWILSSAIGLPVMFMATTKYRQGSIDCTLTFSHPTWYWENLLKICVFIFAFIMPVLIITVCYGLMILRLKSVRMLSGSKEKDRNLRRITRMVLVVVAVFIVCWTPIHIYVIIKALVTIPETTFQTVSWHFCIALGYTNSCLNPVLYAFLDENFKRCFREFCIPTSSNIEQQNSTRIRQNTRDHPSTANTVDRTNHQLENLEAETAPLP

Row | Molecule | IC50 [1] | IC50 [2] | Ki [2] | IC50 [3] | Ki [3] | IC50 [4] | Ki [4] | IC50 [5] | Ki [5] | IC50 [6] | IC50 [7] | Ki [7] | IC50 [8] | IC50 [9] | Ki [9] | IC50 (Cytochrome P450 3A4) | Ki (Cytochrome P450 3A4) | IC50 [10] | IC50 [11] | Ki [11] | also measured
1 | Fc1ccc([C@@H]2CCNC[C@H]2COc2ccc3c(c2)OCO3)cc1 [PAROXETINE] | Not Active | Not Active | Not Active | Not Active | Not Active | Not Active | Not Active | Not Active | Not Active | Not Active | Not Active | Not Active | Not Active | Not Active | Not Active | Not Active | Not Active |  |  |  | IC50 (Mu-type opioid receptor): Not Active
2 | CARBOPLATIN | Not Active | Not Active | Not Active | Not Active | Not Active | Not Active | Not Active | Not Active | Not Active | Not Active | Not Active | Not Active | Not Active | Not Active | Not Active | Not Active | Not Active | Not Active | Not Active | Not Active | Ki [1]: Not Active; Ki [10]: Not Active; Ki [6]: Not Active; Ki [8]: Not Active
3 | c1ccc2c(c1)cc1ccc3cccc4ccc2c1c34 | Not Active |  |  | Not Active | Not Active | Not Active | Not Active | Not Active | Not Active | Not Active | Not Active | Not Active | Not Active | Not Active | Not Active | Not Active | Not Active | Not Active | Not Active | Not Active | IC50 ([2]; read-out: IC50): 20.7 µM
4 | CISPLATIN | Not Active | Not Active | Not Active | Not Active | Not Active | Not Active | Not Active | Not Active | Not Active | Not Active | Not Active | Not Active | Not Active | Not Active | Not Active | Not Active | Not Active | Not Active | Not Active | Not Active | Ki [1]: Not Active; Ki [10]: Not Active; Ki [6]: Not Active; Ki [8]: Not Active
5 | OXALIPLATIN | Not Active | Not Active | Not Active | Not Active | Not Active | Not Active | Not Active | Not Active | Not Active | Not Active | Not Active | Not Active | Not Active | Not Active | Not Active | Not Active | Not Active | Not Active | Not Active | Not Active | Ki [1]: Not Active; Ki [10]: Not Active; Ki [6]: Not Active; Ki [8]: Not Active
